In brackets after ≈: the same amount, converted by molar mass.

Results on eight compounds are retold here after patent US4293504A, “Process for preparing optically active α-cyano-3-(4-halogenophenoxy)-benzyl 2-(4-chlorophenyl)isovalerate” (Sumitomo Chemical Company, Limited, priority 1979, dated 1981).

Assay [1] concerns female adult CSMA-strain houseflies. Nature of the assay: Test Example 2: topical application to thorax, mortality after 24 hours. Type of assay: in vivo, housefly. The settings on record: for Relative Efficacy (reference compound: 100): from LD50, housefly, reference = racemate with same X; for LD50 (median lethal dose): topical, 0.5 μl acetone solution to thorax, 24 hours. The method, then:
(§1) In the following test examples, the "racemate" (conventional product) of each of the compounds of the formula (I) was formulated in the same procedures as in each test example and then used as a reference compound.
The compounds of this invention, (1), (2), (3), (4) and (5) were diluted with acetone to a predetermined concentration, and 0.5 μl of each solution was topically applied to thorax of female adult CSMA-strain houseflies with a microsyringe. The flies were placed in a plastic cup having a diameter of 12 cm containing therein cotton absorbent impregnated with 3% sugar water. 24 hours later, the alive and dead was evaluated to determine the LD50 (median lethal dose) (μg/insect).

The subject of the next assay is tobacco cutworm. Nature of the assay: whole plant or invertebrate. It is filed as in vivo. The settings on record: for LC50: 48 h, read-out: LC50 (median lethal concentration); for Relative Efficacy (reference compound: 100): from LC50, tobacco cutworm, reference = racemate with same X.
From the text: (§2) 10 parts of each of the compounds of this invention, (1), (2), (3), (4) and (5) was mixed with 15 parts of Sorpol 3005x (a registered trademark of Toho Chemical Co., Ltd.) and 75 parts of xylene, and the mixture was thoroughly stirred to provide a 10% emulsifiable concentrate.
as §1
Each of the emulsifiable concentrates prepared from the compounds of this invention, (1), (2), (3), (4) and (5) in the procedures described in Formulation Example 1 was diluted with water to a predetermined concentration, and a sticker containing 20% of an alkylphenol polyethylene glycol ether and 12% of a salt of lignin sulfonic acid was added to the solution in an amount of 1 ml per 3,000 ml of the solution. […] Ten 3rd-instar larvae of tobacco cutworm were further immersed in each solution for 10 seconds. The leaves and cutworms were air-dried and placed in each plastic cup having a diameter of 10 cm and a height of 4 cm. 48 hours later, the alive and dead was evaluated to obtain the LC50 (median lethal concentration) (ppm).

The next assay relates to carmine mites. Nature of the assay: Test Example 4: emulsifiable concentrate applied to mite-infested potted kidney beans. It is filed as in vivo, carmine mite. The conditions noted are these: 10% emulsifiable concentrate diluted 500-fold, 10 ml/pot; 10 days. On the procedure:
as §2
10 to 15 female adult carmine mites were placed on each leaf of potted kidney beans (2-leaf stage) 9 days old after seeding. After standing in a constant temperature room at 27° C. for a week, a lot of mites in various growth stages were observed on the beans. Each of the emulsifiable concentrates prepared from the compounds of this invention (1) and (2) in the procedures described in Formulation Example 1 was diluted 500-fold with water and applied to the beans on a turntable at a rate of 10 ml/pot.

For assay [2], the system named is adult green rice leafhoppers. Nature of the assay: Test Example 3: dust applied to rice seedlings, mortality after 24 hours. The settings on record: 0.5% dust, 2 kg/10 ares, 200 mmHg. Type of assay: in vivo, green rice leafhopper. The method, then: 0.5 part of each of the compounds of this invention, (1), (2), (3), (4) and (5) was dissolved in 20 parts of acetone. To the solution was added 99.5 parts of 300 mesh clay, and the mixture was thoroughly stirred. The acetone was distilled off to provide a 0.5% dust.
The dusts prepared from the compounds of this invention, (1), (2), (3), (4) and (5) in the procedures described in Formulation Example 2 were applied to rice seedlings planted in each 3 inch pot and 20 days old after seeding. A bell-jar duster was used to apply each dust at a pressure of 200 mmHg at a rate of 2 kg/10 ares. After the treatment, each pot was enclosed with a metal screen cage in which about 30 adult green rice leafhoppers were released.

Assay [3] deals with harmful insects and/or mites. Nature of the assay: Insecticidal and/or acaricidal activity of optical isomers (general statement). It is filed as in vivo. The conditions noted are these: Aα-isomer, X = F versus other halogens.

As for `CC(C)C(C(=O)OC(C#N)c1cccc(Oc2ccc(Cl)cc2)c1)c1ccc(Cl)cc1` (racemic) [(b), reference compound], in assay [1], the “Relative Efficacy (reference compound: 100)” value (shortened to “Relative Efficacy”) was 100 and the “LD50 (median lethal dose)” value is 0.062 μg/insect. Also, in the assay with tobacco cutworm, the LC50 turned out to be 15.2 µg/mL (≈ 33.5 µM) and the “Relative Efficacy” value was determined as 100.
`CC(C)C(C(=O)OC(C#N)c1cccc(Oc2ccc(Br)cc2)c1)c1ccc(Cl)cc1` (racemic) [(c), reference compound]: in assay [1], the “Relative Efficacy” value was determined as 100 and the “LD50 (median lethal dose)” value came out at 0.080 μg/insect. Besides, in the assay with tobacco cutworm, the LC50 is 20 µg/mL (≈ 40.1 µM) and the “Relative Efficacy” value stood at 100.
For `CC(C)C(C(=O)OC(C#N)c1cccc(Oc2ccc(F)cc2)c1)c1ccc(Cl)cc1` (racemic) [Reference Compound (a), reference compound], in assay [1], the “Relative Efficacy” value came to 100 and the “LD50 (median lethal dose)” value is on record as 0.041 μg/insect. Also, in the assay with tobacco cutworm, the LC50 was found to be 5 µg/mL (≈ 11.4 µM) and the “Relative Efficacy” value stood at 100.
Consider `CC(C)[C@H](C(=O)OC(C#N)c1cccc(Oc2ccc(F)cc2)c1)c1ccc(Cl)cc1` (stereo partly shown) [Compound (1)], for which, in assay [1], the “Relative Efficacy” value was 216 and the “LD50 (median lethal dose)” value is listed as 0.019 μg/insect. In addition, in the assay with tobacco cutworm, the LC50 stood at 2.3 µg/mL (≈ 5.25 µM) and the “Relative Efficacy” value is listed as 217. For the same compound, the “damage to mite-released kidney beans” value in the assay on carmine mites is “little damaged”. The “alive and dead evaluation of leafhoppers” value in assay [2] is given as “completely killed”.
As to `CC(C)[C@H](C(=O)O[C@H](C#N)c1cccc(Oc2ccc(F)cc2)c1)c1ccc(Cl)cc1` [Compound (2)], in assay [1], the “Relative Efficacy” value is 410 and the “LD50 (median lethal dose)” value amounted to 0.010 μg/insect. In addition, in the assay with tobacco cutworm, the LC50 is 1.2 µg/mL (≈ 2.74 µM) and the “Relative Efficacy” value was 417. For the same compound, in assay [3], the “activity compared with other halogen-substituted compounds” value was “stronger activity than other halogen-substituted compounds”. Further, the “damage to mite-released kidney beans” value with carmine mites is “little damaged”. Moreover, in assay [2], the “alive and dead evaluation of leafhoppers” value is “completely killed”.
Take `CC(C)[C@H](C(=O)O[C@H](C#N)c1cccc(Oc2ccc(Cl)cc2)c1)c1ccc(Cl)cc1` [Compound (3)]: in assay [1], the “Relative Efficacy” value stood at 388 and the “LD50 (median lethal dose)” value was found to be 0.016 μg/insect. In the assay with tobacco cutworm, the LC50 stood at 3.9 µg/mL (≈ 8.58 µM) and the “Relative Efficacy” value was 390. Further, the “alive and dead evaluation of leafhoppers” value in assay [2] is “completely killed”.
In the same order, the values of `CC(C)[C@H](C(=O)OC(C#N)c1cccc(Oc2ccc(Br)cc2)c1)c1ccc(Cl)cc1` (stereo partly shown) [Compound (4)] are 229, 0.035 μg/insect, 9.5 µg/mL (≈ 19 µM), 211 and “completely killed”.
For `CC(C)[C@H](C(=O)O[C@H](C#N)c1cccc(Oc2ccc(Br)cc2)c1)c1ccc(Cl)cc1` [Compound (5)] the same measures were 444, 0.018 μg/insect, 4.2 µg/mL (≈ 8.42 µM), 476 and “completely killed”.
